Experimental data from patent US8192962B2, “Processes for detecting toxic substances” (Daikin Industries, Ltd., priority 2001, dated 2012).

Tested on: Detoxification protein genes
Experiment: DNA chip mRNA expression in yeast, detoxification protein genes (Table 8)
Assay type: cell-based, Saccharomyces cerevisiae S288C
Description: Yeast (Saccharomyces cerevisiae S288C (α SUC2mal mel gap2 CUP1)) were incubated at 25° C. on YPD medium (yeast extract 1%, polypepton 2%, glucose 2%). One of toxic chemical substances was added to the cells at logarithmic growth phase, and the cells were further incubated for two hours. Cells were cultured without any chemical substance in the same condition, and were used as control. Concentrations of the chemical substances were defined to inhibit the growth of the yeast but not lead to death.
After completion of the incubation, the culture was centrifuged to collect the cells. To the cells, sodium acetate buffer (50 mM sodium acetate, 10 mM EDTA, 1% SDS) was added, and the mixture was shaken at 65° C. for five minutes, followed by returning to room temperature, and obtaining the supernatant, of which the procedures were repeated two times. To the supernatant, ½ amount of a solution of phenol/chloroform was added, and the mixture was centrifuged to give a supernatant, which was added with an equal amount of chloroform, and the mixture was centrifuged to give a supernatant. To the supernatant, an equal amount of isopropanol containing 0.3 M sodium acetate was added, and the mixture was allowed to stand at room temperature for 30 minutes, after which the mixture was centrifuged to give a sediment of the whole RNAs. Seventy % ethanol was added to the sediment, and the mixture was again centrifuged to give a sediment, which was then dried and dissolved in water. mRNA was isolated from the whole RNAs as followings. In view of the fact that a poly A chain is attached to the 3′ terminus of mRNA, a polynucleotide having a poly T structure which was immobilized on the surface of latex beads was used to trap the mRNA, and then the mRNA was washed and eluted with spine column (Oligotex-dT30<Super>mRNA Purification Kit, Takara). Reverse transcription of the mRNA was conducted with a reverse transcriptase (Super Script II Reverse Transcriptase; catalogue No. 18064-014, GibcoBRL) using fluorescence-labeled nucleotides to give cDNAs that were introduced with Cy3-dUTP or Cy5-dUTP during the reverse transcription.
The labeled cDNAs were dissolved in TE buffer (10mM Tris-HCl/1 mM EDTA, pH8.0), and the solution was dropped on the DNA chip containing the whole genes of yeast (DNA Chip Research Inc. Japan) so that the cDNAs were hybridized on the DNA chip at 65° C. for over 12 hours. The fluoresces intensity of the DNA chip was read with a scanner, and the ratio relative to the fluorescence intensity resulting from the absence of chemical substance was estimated as the following, which is shown in Tables 1 to 9: […]

For `CCCCCCCCCCCCc1ccc(S(=O)(=O)[O-])cc1.[Na+]` [(17), sodium dodecylbenzosulfonate], the “The level of expressed mRNA in the presence of chemical substance/The level of expressed mRNA in the absence of chemical substance” value (yeast gene YBL064C) was 1.2, the “The level of expressed mRNA in the presence of chemical substance/The level of expressed mRNA in the absence of chemical substance” value (yeast gene YBR008C) was 2.0 and the “The level of expressed mRNA in the presence of chemical substance/The level of expressed mRNA in the absence of chemical substance” value (yeast gene YBR145W) was 1.7. The “The level of expressed mRNA in the presence of chemical substance/The level of expressed mRNA in the absence of chemical substance” value (yeast gene YBR244W) was 1.2, the “The level of expressed mRNA in the presence of chemical substance/The level of expressed mRNA in the absence of chemical substance” value (yeast gene YBR293W) was 1.0 and the “The level of expressed mRNA in the presence of chemical substance/The level of expressed mRNA in the absence of chemical substance” value (yeast gene YCL035C) was 2.6. The “The level of expressed mRNA in the presence of chemical substance/The level of expressed mRNA in the absence of chemical substance” value (yeast gene YCL069W) was 1.0, the “The level of expressed mRNA in the presence of chemical substance/The level of expressed mRNA in the absence of chemical substance” value (yeast gene YCR083W) was 1.3 and the “The level of expressed mRNA in the presence of chemical substance/The level of expressed mRNA in the absence of chemical substance” value (yeast gene YDL100C) was 1.2. The “The level of expressed mRNA in the presence of chemical substance/The level of expressed mRNA in the absence of chemical substance” value (yeast gene YDL168W) was 0.9, the “The level of expressed mRNA in the presence of chemical substance/The level of expressed mRNA in the absence of chemical substance” value (yeast gene YDR256C) was 1.0 and the “The level of expressed mRNA in the presence of chemical substance/The level of expressed mRNA in the absence of chemical substance” value (yeast gene YDR453C) was 1.0. The “The level of expressed mRNA in the presence of chemical substance/The level of expressed mRNA in the absence of chemical substance” value (yeast gene YDR513W) was 1.3, the “The level of expressed mRNA in the presence of chemical substance/The level of expressed mRNA in the absence of chemical substance” value (yeast gene YDR538W) was 1.0 and the “The level of expressed mRNA in the presence of chemical substance/The level of expressed mRNA in the absence of chemical substance” value (yeast gene YEL027W) was 1.0. The “The level of expressed mRNA in the presence of chemical substance/The level of expressed mRNA in the absence of chemical substance” value (yeast gene YEL065W) was 0.7, the “The level of expressed mRNA in the presence of chemical substance/The level of expressed mRNA in the absence of chemical substance” value (yeast gene YER185W) was 2.6 and the “The level of expressed mRNA in the presence of chemical substance/The level of expressed mRNA in the absence of chemical substance” value (yeast gene YFL050C) was 0.8. For the same compound, the “The level of expressed mRNA in the presence of chemical substance/The level of expressed mRNA in the absence of chemical substance” value (yeast gene YGL013C) was 1.1, the “The level of expressed mRNA in the presence of chemical substance/The level of expressed mRNA in the absence of chemical substance” value (yeast gene YGL254W) was 0.8 and the “The level of expressed mRNA in the presence of chemical substance/The level of expressed mRNA in the absence of chemical substance” value (yeast gene YGR088W) was 0.9. The “The level of expressed mRNA in the presence of chemical substance/The level of expressed mRNA in the absence of chemical substance” value (yeast gene YGR138C) was 0.7, the “The level of expressed mRNA in the presence of chemical substance/The level of expressed mRNA in the absence of chemical substance” value (yeast gene YGR197C) was 1.7 and the “The level of expressed mRNA in the presence of chemical substance/The level of expressed mRNA in the absence of chemical substance” value (yeast gene YGR209C) was 1.3. The “The level of expressed mRNA in the presence of chemical substance/The level of expressed mRNA in the absence of chemical substance” value (yeast gene YGR224W) was 2.8, the “The level of expressed mRNA in the presence of chemical substance/The level of expressed mRNA in the absence of chemical substance” value (yeast gene YHL040C) was 1.4 and the “The level of expressed mRNA in the presence of chemical substance/The level of expressed mRNA in the absence of chemical substance” value (yeast gene YHL047C) was 1.2. For the same compound, the “The level of expressed mRNA in the presence of chemical substance/The level of expressed mRNA in the absence of chemical substance” value (yeast gene YHR008C) was 0.9, the “The level of expressed mRNA in the presence of chemical substance/The level of expressed mRNA in the absence of chemical substance” value (yeast gene YHR048W) was 0.7 and the “The level of expressed mRNA in the presence of chemical substance/The level of expressed mRNA in the absence of chemical substance” value (yeast gene YHR053C) was 1.0. For the same compound, the “The level of expressed mRNA in the presence of chemical substance/The level of expressed mRNA in the absence of chemical substance” value (yeast gene YHR055C) was 0.9, the “The level of expressed mRNA in the presence of chemical substance/The level of expressed mRNA in the absence of chemical substance” value (yeast gene YIR002C) was 1.1 and the “The level of expressed mRNA in the presence of chemical substance/The level of expressed mRNA in the absence of chemical substance” value (yeast gene YIR038C) was 2.8. For the same compound, the “The level of expressed mRNA in the presence of chemical substance/The level of expressed mRNA in the absence of chemical substance” value (yeast gene YJL101C) was 0.9, the “The level of expressed mRNA in the presence of chemical substance/The level of expressed mRNA in the absence of chemical substance” value (yeast gene YJR104C) was 0.9 and the “The level of expressed mRNA in the presence of chemical substance/The level of expressed mRNA in the absence of chemical substance” value (yeast gene YKL026C) was 1.6. The “The level of expressed mRNA in the presence of chemical substance/The level of expressed mRNA in the absence of chemical substance” value (yeast gene YKL064W) was 1.3, the “The level of expressed mRNA in the presence of chemical substance/The level of expressed mRNA in the absence of chemical substance” value (yeast gene YKR066C) was 0.9 and the “The level of expressed mRNA in the presence of chemical substance/The level of expressed mRNA in the absence of chemical substance” value (yeast gene YKR105C) was 0.8. The “The level of expressed mRNA in the presence of chemical substance/The level of expressed mRNA in the absence of chemical substance” value (yeast gene YKR106W) was 0.9, the “The level of expressed mRNA in the presence of chemical substance/The level of expressed mRNA in the absence of chemical substance” value (yeast gene YLL028W) was 1.2 and the “The level of expressed mRNA in the presence of chemical substance/The level of expressed mRNA in the absence of chemical substance” value (yeast gene YLL057C) was 3.0. The “The level of expressed mRNA in the presence of chemical substance/The level of expressed mRNA in the absence of chemical substance” value (yeast gene YLL060C) was 1.9, the “The level of expressed mRNA in the presence of chemical substance/The level of expressed mRNA in the absence of chemical substance” value (yeast gene YLR043C) was 1.5 and the “The level of expressed mRNA in the presence of chemical substance/The level of expressed mRNA in the absence of chemical substance” value (yeast gene YLR046C) was 5.2. The “The level of expressed mRNA in the presence of chemical substance/The level of expressed mRNA in the absence of chemical substance” value (yeast gene YML028W) was 1.1, the “The level of expressed mRNA in the presence of chemical substance/The level of expressed mRNA in the absence of chemical substance” value (yeast gene YML116W) was 1.0 and the “The level of expressed mRNA in the presence of chemical substance/The level of expressed mRNA in the absence of chemical substance” value (yeast gene YMR015C) was 1.0. For the same compound, the “The level of expressed mRNA in the presence of chemical substance/The level of expressed mRNA in the absence of chemical substance” value (yeast gene YMR038C) was 1.2, the “The level of expressed mRNA in the presence of chemical substance/The level of expressed mRNA in the absence of chemical substance” value (yeast gene YNL239W) was 1.1 and the “The level of expressed mRNA in the presence of chemical substance/The level of expressed mRNA in the absence of chemical substance” value (yeast gene YNL241C) was 1.0. The “The level of expressed mRNA in the presence of chemical substance/The level of expressed mRNA in the absence of chemical substance” value (yeast gene YNL259C) was 2.6, the “The level of expressed mRNA in the presence of chemical substance/The level of expressed mRNA in the absence of chemical substance” value (yeast gene YOL158C) was 1.4 and the “The level of expressed mRNA in the presence of chemical substance/The level of expressed mRNA in the absence of chemical substance” value (yeast gene YOR031W) was 1.7. For the same compound, the “The level of expressed mRNA in the presence of chemical substance/The level of expressed mRNA in the absence of chemical substance” value (yeast gene YOR153W) was 2.5 and the “The level of expressed mRNA in the presence of chemical substance/The level of expressed mRNA in the absence of chemical substance” value (yeast gene YOR247W) was 1.2.
